Reference: patent publication US20110097385A1, “Delivery System for Drug and Cell Therapy” (TTDC BIO L.P., priority 2003, published 2011)

Legend:
[1] = system: humans; conditions: in humans, company information (Novo Nordisk); cited from earlier work
[2] = system: mouse; assay: Blood glucose in mouse after subcutaneous two phase composition or insulin alone; format: in vivo; conditions: 0.5 UI insulin subcutaneously
Description: 0.05 ml of the PEG and insulin solution is mixed with 0.15 ml of the microparticle and dextran suspension to form a two phase composition or mixture. 0.02 ml of the two phase mixture containing 0.5 UI of insulin is injected subcutaneously into mouse.

[3] = system: mice; assay: Blood glucose in mice after injected insulin with or without crystallized dextran microparticles; format: in vivo; conditions: mouse
Description: The suspension was prepared as follows. 5.0 g of Dextran T10 (Pharmacia, Uppsala, Sweden) was dissolved in 20.0 g of water. The solution was filtered through a 0.22 μm filter (Millipore, Bedford, Mass.) and freeze dried. 3.0 g of the resulting powder was dissolved in 3.0 g of sterile water and placed in box at temperature 60° C. […] Finally, the produced crystallized dextran microparticles suspension was mixed with aqueous insulin solution and used in the experiment with mice. Samples of the suspension were introduced into the mice's legs and samples of animal blood were taken from each mouse's tail and analyzed for glucose concentrations.
In comparative example 15, no insulin was injected into the mouse.

[4] = system: Chinchilla rabbits; assay: Blood glucose and duration of efficacy in rabbits after subcutaneous insulin formulations; conditions: rabbit, 8 UI subcutaneously
Description: Samples of the formulation were subcutaneously injected into the rabbits. […] Samples of animal blood were taken from the rabbit's ear vein and analyzed for glucose concentration. Blood glucose concentration was measured with a glucose analyzer (One-Touch® Lifescan, Johnson & Johnson, Milpitas, Calif., USA) after proper calibration.
In comparative examples 23 and 24, two intact rabbits were not provided any insulin.

[5] = insulin 0.5 UI injected, listed as 16
[6] = insulin 0.5 UI injected, listed as 21

Substance: Actrapid HM®: short-acting human recombinant insulin of Novo Nordisk, injected alone; Ex 21 is the average of 16 and 17
- advertised duration of efficacy [1]: eight
- glucose 15 min ([2]; 15 min): 3.7 mmol/L
- glucose 30 min ([2]; 30 min): 2.3 mmol/L
- glucose 45 min ([2]; 45 min): 1.7 mmol/L
- glucose 60 min ([2]; 60 min): 2.9 mmol/L
- glucose 120 min ([2]; 120 min): 6.7 mmol/L
- change of blood glucose level from 120 minutes to 390 minutes after injection ([3]; insulin 0.5 UI): did substantially increase
- glucose 0 min ([3]; insulin 0.5 UI injected): 8.1 mmol/L
- glucose 0 min [3, 5]: 5.9 mmol/L
- glucose 0 min [3, 6]: 7 mmol/L
- glucose 15 min ([3]; insulin 0.5 UI injected): 3.8 mmol/L
- glucose 15 min [3, 5]: 3.3 mmol/L
- glucose 15 min [3, 6]: 3.6 mmol/L
- glucose 30 min ([3]; insulin 0.5 UI injected): 2.8 mmol/L
- glucose 30 min [3, 5]: 2.7 mmol/L
- glucose 30 min [3, 6]: 2.8 mmol/L
- glucose 45 min ([3]; insulin 0.5 UI injected): 1.9 mmol/L
- glucose 45 min [3, 5]: 1.8 mmol/L
- glucose 45 min [3, 6]: 1.9 mmol/L
- glucose 120 min ([3]; insulin 0.5 UI injected, 120 min): 0.9 mmol/L
- glucose 210 min ([3]; insulin 0.5 UI injected): 3.7 mmol/L
- glucose 210 min [3, 5]: 3.5 mmol/L
- glucose 210 min [3, 6]: 3.6 mmol/L
- glucose 270 min ([3]; insulin 0.5 UI injected): 3.4 mmol/L
- glucose 270 min [3, 5]: 3.0 mmol/L
- glucose 270 min [3, 6]: 3.2 mmol/L
- glucose 390 min ([3]; insulin 0.5 UI injected): 3.5 mmol/L
- glucose 390 min [3, 5]: 3.2 mmol/L
- glucose 390 min [3, 6]: 3.4 mmol/L

Substance: Monotard HM®: long-acting insulin of Novo Nordisk (40 UI/ml), injected subcutaneously alone at 8 UI
- advertised duration of efficacy [1]: twenty four
- glucose 0 hours ([4]; 0 hours): 5.4 mmol/L
- glucose 0.5 hours ([4]; listed as 25): 5.8 mmol/L
- glucose 0.5 hours ([4]; listed as 26): 5.0 mmol/L
- glucose 1 hour ([4]; listed as 25): 3.8 mmol/L
- glucose 1 hour ([4]; listed as 26): 4.2 mmol/L
- glucose 1.5 hours ([4]; listed as 25): 3.2 mmol/L
- glucose 1.5 hours ([4]; listed as 26): 2.9 mmol/L
- glucose 2 hours ([4]; listed as 25): 2.4 mmol/L
- glucose 2 hours ([4]; listed as 26): 2.5 mmol/L
- glucose 16 hours ([4]; listed as 25): 3.9 mmol/L
- glucose 16 hours ([4]; listed as 26): 4.0 mmol/L
- glucose 24 hours ([4]; listed as 25): 5.6 mmol/L
- glucose 24 hours ([4]; listed as 26): 5.1 mmol/L
- glucose […] ([4]; listed as 25): 2.6 mmol/L
- glucose […] ([4]; listed as 26): 2.4 mmol/L
